Assay results: patent US9034866B2 (Genentech, Inc., priority 2012, dated 2015)
Like-named read-outs stand apart in the source and are kept apart here.

Columns and labels:
[1] = biological target: nuclear factor-kappa B (NF-kB)-inducing kinase (NIK) (Homo sapiens (Human), UniProt Q99558); experiment: NIK Enzyme Inhibition Assay (Transcreener ADP fluorescence polarization); assay type: biochemical; conditions: read-out: NIK ADP-FP (Ki uM)
Outline: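 Fluorescence-polarization ADP detection (tracer displacement, 633 nm excitation) read after EDTA/Brij quench. Reaction: 0.2-1 nM insect-cell-derived NIK, 10 uM ATP, HEPES pH 7.2 with MgCl2 and DTT, 1% DMSO, 1-3.5 h with compounds.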

[2] = test system: REL-A (p65) nuclear translocation in HeLa cells; experiment: REL-A nuclear translocation assay (classical NF-kB signaling), high content imaging; assay type: cell-based; conditions: compounds 4.5 hours, then 10 ng/mL TNF-α for 30 minutes, read-out: REL-A HeLa Transloc Assay (IC50)
Outline: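 HeLa cells in 10% FBS medium preincubated with compounds (0.2% DMSO final) for 4.5 hours, then stimulated with 10 ng/mL TNF-α for 30 minutes. Fixed cells stained with 400 ng/mL anti-REL-A antibody, Alexa488 secondary and DRAQ5; translocation quantified by imaging as nuclear to cytoplasmic signal ratio.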

[3] = test system: p52 (NF-kB2) nuclear translocation in HeLa cells; experiment: p52 nuclear translocation assay (non-classical NF-kB signaling), high content imaging; assay type: cell-based; conditions: 100 ng/mL anti-lymphotoxin beta receptor antibody for 5 hours, read-out: p52 HeLa Transloc Assay (IC50)
Outline: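 HeLa cells in 10% FBS medium were treated with compound (0.2% DMSO final), then stimulated 5 h with 100 ng/mL anti-lymphotoxin beta receptor antibody. After fixation, cells were immunostained for p52 (2 ug/mL antibody) with DRAQ5 nuclear stain and imaged by high-content imaging. IC50 in µM was derived from the nuclear/cytoplasmic signal ratio.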

[4] = purified NIK 0.2-1 nM, 10 uM ATP, Morrison's quadratic equation

Sequence of nuclear factor-kappa B (NF-kB)-inducing kinase (NIK) (Q99558 whole entry): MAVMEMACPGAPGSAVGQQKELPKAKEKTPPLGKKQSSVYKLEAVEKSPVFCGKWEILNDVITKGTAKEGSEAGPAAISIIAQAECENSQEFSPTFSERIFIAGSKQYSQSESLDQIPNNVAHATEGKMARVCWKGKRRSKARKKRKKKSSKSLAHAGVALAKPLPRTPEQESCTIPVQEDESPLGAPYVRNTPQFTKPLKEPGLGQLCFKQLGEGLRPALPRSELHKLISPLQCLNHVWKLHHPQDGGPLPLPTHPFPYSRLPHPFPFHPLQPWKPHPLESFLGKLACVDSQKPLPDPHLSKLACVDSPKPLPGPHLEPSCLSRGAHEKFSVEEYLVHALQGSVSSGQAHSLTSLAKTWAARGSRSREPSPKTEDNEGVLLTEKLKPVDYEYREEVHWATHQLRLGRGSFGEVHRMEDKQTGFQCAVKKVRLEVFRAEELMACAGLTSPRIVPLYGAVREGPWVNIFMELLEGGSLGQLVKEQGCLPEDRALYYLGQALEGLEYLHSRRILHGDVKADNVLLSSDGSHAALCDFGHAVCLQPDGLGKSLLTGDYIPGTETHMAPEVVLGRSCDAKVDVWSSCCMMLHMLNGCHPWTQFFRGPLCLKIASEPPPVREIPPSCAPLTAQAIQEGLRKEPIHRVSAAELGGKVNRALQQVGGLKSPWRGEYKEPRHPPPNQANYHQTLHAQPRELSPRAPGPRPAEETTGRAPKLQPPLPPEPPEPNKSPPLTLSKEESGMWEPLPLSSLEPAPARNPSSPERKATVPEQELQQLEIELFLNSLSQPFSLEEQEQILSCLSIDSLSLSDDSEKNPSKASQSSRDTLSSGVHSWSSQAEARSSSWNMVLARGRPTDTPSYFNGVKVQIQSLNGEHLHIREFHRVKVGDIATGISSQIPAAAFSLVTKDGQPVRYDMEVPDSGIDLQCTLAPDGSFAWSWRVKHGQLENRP

| Compound | Ki [1, 4] | IC50 ([2]; Homo sapiens, HeLa) | IC50 ([3]; Homo sapiens, HeLa, 5 h) | Ki [1] | IC50 [2] | IC50 [3] | IC50 ([2]; Homo sapiens) | IC50 ([3]; Homo sapiens) |
| --- | --- | --- | --- | --- | --- | --- | --- | --- |
| CC(O)(C#Cc1cc2c(cc1F)OCCc1sc(C(N)=O)nc1-2)CO (stereo not drawn) | 0.003 µM | 20000 nM | 1100 nM |  |  |  |  |  |
| CNC(=O)c1c(C(N)=O)nn2c1CCOc1ccc(C#C[C@]3(O)CCN(C)C3=O)cc1-2 (racemic) [Example 514] | 0.0012 µM | > 20000 nM | 543 nM |  |  |  |  |  |
| Cn1c(C(N)=O)nc2c1C1CC(C1)c1cc(F)c(C#CC(C)(C)O)cc1-2 | 0.0078 µM | > 20000 nM | 286 nM |  |  |  |  |  |
| CNC(=O)c1c(C(N)=O)nc2n1C1CC(C1)c1ccc(C#C[C@@](C)(O)c3ccccn3)cc1-2 | 0.0021 µM | > 20000 nM | 830 nM |  |  |  |  |  |
| CNC(=O)c1c(C(N)=O)nc2n1CCOc1ccc(C#CC(C)(O)c3ccccn3)cc1-2 (stereo not drawn) | 0.0043 µM | > 20000 nM | 1400 nM |  |  |  |  |  |
| Cc1cc(-c2c(C(N)=O)nc3n2CCOc2cc(F)c(C#C[C@@](C)(O)c4noc(C)n4)cc2-3)[nH]n1 | 0.0087 µM | > 20000 nM | 2500 nM |  |  |  |  |  |
| CN1CC[C@@](O)(C#Cc2ccc3c(c2)-c2nc(C(N)=O)c(C(F)(F)F)n2CCO3)C1=O | 0.00072 µM | > 20000 nM | 442 nM |  |  |  |  |  |
| Cc1cc([C@](C)(O)C#Cc2cc3c(cc2F)C2CC(C2)c2[nH]c(C(N)=O)nc2-3)no1 | 0.0002 µM | > 20000 nM | 477 nM |  |  |  |  |  |
| NC(=O)c1cn2c(n1)-c1cc(C#CC3(O)CCc4cccnc43)c(F)cc1OCC2 (racemic) | 0.0009 µM | > 20000 nM | 1500 nM |  |  |  |  |  |
| Cn1c(C(N)=O)nc2c1C1CC(C1)c1cc(F)c(C#C[C@@](C)(O)c3ncccn3)cc1-2 [Example 283, (R)-8-fluoro-9-(3-hydroxy-3-(pyrimidin-2-yl)but-1-yn-1-yl)-3-methyl-3,4,5,6-tetrahydro-4,6-methanobenzo[3,4]cyclo-hepta[1,2-d]imidazole-2-carboxamide] | 0.00016 µM | 20000 nM | 881 nM |  |  |  |  |  |
| NC(=O)c1cn2c(n1)-c1cc(C#CC3(O)CCNC3=O)c(F)cc1OCC2 (racemic) | 0.0032 µM | > 20000 nM | 16000 nM |  |  |  |  |  |
| C[C@@](O)(C#Cc1ccc2c(c1)-c1nc(C(N)=O)c(-c3nc(C4CC4)n[nH]3)n1CCO2)c1ncccn1 | 0.0072 µM | > 20000 nM | 2100 nM |  |  |  |  |  |
| CNC(=O)c1c(C(N)=O)nc2n1C1CC(C1)c1ccc(C#C[C@@](C)(O)c3cc(C)on3)cc1-2 (racemic) | 0.00061 µM | 1800 nM | 1300 nM |  |  |  |  |  |
| CC(C)(O)C#Cc1ccc2c(c1)-c1nc(C(N)=O)c(C(F)(F)F)n1C1CC2C1 (racemic) [Example 206] | 0.026 µM | > 20000 nM | 4400 nM |  |  |  |  |  |
| Cc1nc([C@](C)(O)C#Cc2cc3c(cc2F)C2CC(C2)c2c-3nc(C(N)=O)n2C)no1 | 0.0005 µM | > 20000 nM | 835 nM |  |  |  |  |  |
| C[C@@](O)(C#Cc1cc2c(cc1F)C1CC(C1)c1[nH]c(C(N)=O)nc1-2)c1ncccn1 | 0.0026 µM | > 20000 nM | 1700 nM |  |  |  |  |  |
| CN1CC[C@@](O)(C#Cc2cc3c(cc2F)C2CC(C2)n2c-3nc(C(N)=O)c2C(C)(C)O)C1=O [Example 327, 9-fluoro-3-(1-hydroxy-1-methyl-ethyl)-10-[2-[(3R)-3-hydroxy-1-methyl-2-oxo-pyrrolidin-3-yl]ethynyl]-5,6,7,12-tet-rahydro-5,7-methanobenzo[c]imidazo[1,2-a]azepine-2-carboxamide] | 0.00685 µM | > 20000 nM | 7800 nM |  |  |  |  |  |
| Cc1cc([C@](C)(O)C#Cc2ccc3c(c2)-c2nc(C(N)=O)c(C(F)(F)F)n2CCO3)no1 (racemic) | 0.0049 µM | > 20000 nM | 4500 nM |  |  |  |  |  |
| CC(C)(O)C#Cc1cc2c(cc1F)C1CC(C1)n1c-2nc(C(N)=O)c1-c1nc(C2CC2)n[nH]1 | 0.0013 µM | > 20000 nM | 3600 nM |  |  |  |  |  |
| CC(C)(O)C#Cc1cc2c(cc1F)C1CC(C1)n1c-2nc(C(N)=O)c1C1CN(C(=O)OC(C)(C)C)C1 (racemic) | 0.0077 µM | > 20000 nM | 1800 nM |  |  |  |  |  |
| Cc1nc([C@](C)(O)C#Cc2cc3c(cc2F)OCCc2sc(C(N)=O)nc2-3)no1 | 0.001 µM | 20000 nM | 171 nM |  |  |  |  |  |

| Compound | Ki [1, 4] | IC50 ([2]; Homo sapiens, HeLa) | IC50 ([3]; Homo sapiens, HeLa, 5 h) | Ki [1] | IC50 [2] | IC50 [3] | IC50 ([2]; Homo sapiens) | IC50 ([3]; Homo sapiens) |
| --- | --- | --- | --- | --- | --- | --- | --- | --- |
| Cc1cc([C@](C)(O)C#Cc2ccc3c(c2)-c2nc(C(N)=O)c(Cc4ccnn4C)n2C2CC3C2)no1 | 0.0002 µM | > 20000 nM | 1700 nM |  |  |  |  |  |
| Cc1nc2ccccc2n1Cc1c(C(N)=O)nc2n1C1CC(C1)c1ccc(C#C[C@]3(O)CCN(C)C3=O)cc1-2 | 0.00087 µM | > 20000 nM | 2900 nM |  |  |  |  |  |
| CC(C)(O)C#Cc1cc2c(cc1F)OCCn1c-2nc(C(N)=O)c1C(=O)NCC#N | 0.0004 µM | 20000 nM | 77 nM |  |  |  |  |  |
| Cc1cc([C@](C)(O)C#Cc2cc3c(cc2F)C2CC(C2)n2c-3nc(C(N)=O)c2C)no1 | 0.0013 µM | > 20000 nM | 385 nM |  |  |  |  |  |
| Cn1nccc1C(O)c1c(C(N)=O)nc2n1CCOc1cc(F)c(C#CC(C)(C)O)cc1-2 (racemic) | 0.0015 µM | > 20000 nM | 2400 nM |  |  |  |  |  |
| Cc1c(C(N)=O)nc2n1C1CC(C1)c1cc(F)c(C#C[C@@](C)(O)c3ncccn3)cc1-2 [Example 321, 9-fluoro-10-[(3R)-3-hydroxy-3-pyrim-idin-2-yl-but-1-ynyl]-3-methyl-5,6,7,12-tet-rahydro-5,7-methanobenzo[c]imidazo[1,2-a]azepine-2-carboxamide] | 0.012 µM | > 20000 nM | 3000 nM |  |  |  |  |  |
| CC(O)(C#Cc1cc2c(cc1F)OCCn1cc(C(N)=O)nc1-2)CF (racemic) [Example 75] | 0.008 µM | 20000 nM | 3800 nM |  |  |  |  |  |
| Cc1cc([C@](C)(O)C#Cc2ccc3c(c2)-c2nc(C(N)=O)c(-c4cnn(CC(C)(C)O)c4)n2C2CC3C2)no1 | 0.00059 µM | > 20000 nM | 934 nM |  |  |  |  |  |
| CNC(=O)c1c(C(N)=O)nc2n1C1CC(C1)c1ccc(C#C[C@@](C)(O)c3noc(C)n3)cc1-2 | 0.0021 µM | 17500 nM | 3800 nM |  |  |  |  |  |
| Cc1cc([C@](C)(O)C#Cc2ccc3c(c2)-c2nc(C(N)=O)c(C(=O)NC4CCOCC4)n2C2CC3C2)no1 (racemic) | 0.0011 µM | 20000 nM | 284 nM |  |  |  |  |  |
| CC(C)(O)c1c(C(N)=O)nc2n1C1CC(C1)c1cc(F)c(C#CC3(O)CCCC3)cc1-2 [Example 324, 9-fluoro-10-[2-(1-hydroxycyclopentyl)ethy-nyl]-3-(1-hydroxy-1-methyl-ethyl)-5,6,7,12-tetrahydro-5,7-methanobenzo[c]imi-dazo[1,2-a]azepine-2-carboxamide] |  |  |  | 0.0089 µM | > 20000 nM | 1100 nM |  |  |
| Cc1cc([C@](C)(O)C#Cc2cc3c(cc2F)OCCn2cc(C(N)=O)nc2-3)no1 [Example 6, 8-fluoro-9-[(R)-3-hydroxy-3-(5-methyl-isoxazol-3-yl)-but-1-ynyl]-4,5-dihydro-6-oxa-1,3a-diaza-benzo[e]azulene-2-car-boxylic acid amide] | 0.0003 µM | 20000 nM | 135 nM |  |  |  |  |  |
| Cc1cc([C@](C)(O)C#Cc2cc3c(cc2F)OCCn2c-3nc(C(N)=O)c2-c2cnn(CC(C)(C)O)c2)no1 (racemic) | 0.00127 µM | > 20000 nM | 1800 nM |  |  |  |  |  |
| CNC(=O)c1c(C(N)=O)nc2n1CCOc1ccc(C#CC3(O)CCC3)cc1-2 | 0.0022 µM | > 20000 nM | 727 nM |  |  |  |  |  |
| Cc1nc([C@](C)(O)C#Cc2cc3c(cc2F)C2CC(C2)n2c-3nc(C(N)=O)c2C(F)(F)F)no1 (racemic) | 0.0072 µM | > 20000 nM | 2300 nM |  |  |  |  |  |
| Cc1cc([C@](C)(O)C#Cc2ccc3c(c2)-c2nc(C(N)=O)c(CC4(C)COC4)n2C2CC3C2)no1 (racemic) | 0.0012 µM | > 20000 nM | 740 nM |  |  |  |  |  |
| Cc1nc([C@](C)(O)C#Cc2ccc3c(c2)-c2nc(C(N)=O)n(C)c2C2CC3C2)no1 [Example 426] | 0.0018 µM | > 20000 nM | 406 nM |  |  |  |  |  |
| CC(C)(O)C#Cc1cc2c(cc1F)C1CC(C1)n1c-2nc(C(N)=O)c1C1(O)COC1 [Example 339, 9-fluoro-10-(3-hydroxy-3-methyl-but-1-ynyl)-3-(3-hydroxyoxetan-3-yl)-5,6,7,12-tetrahydro-5,7-methanobenzo[c]imi-dazo[1,2-a]azepine-2-carboxamide] | 0.007 µM |  |  |  |  |  | > 20000 nM | 2600 nM |
| Cc1cc([C@](C)(O)C#Cc2cc3c(cc2F)C2CC(C2)n2c-3nc(C(N)=O)c2C(C)(C)O)no1 [Example 326] | 0.0057 µM | 5600 nM | 1200 nM |  |  |  |  |  |
| CNC(=O)c1c(C(N)=O)nc2n1C1CC(C1)c1cc(F)c(C#CC3(O)CCCC3)cc1-2 | 0.00012 µM | > 20000 nM | 375 nM |  |  |  |  |  |
